Structures can show the parent of a compound that is named as a salt.
Key:
adult sensory neurons = assay: Small molecule screen for axon regeneration and outgrowth in adult neural cell suspensions (Example 3); format: cell-based, Sprague-Dawley rat; conditions: 10 μM drug, 24 hrs incubation; average of 4 fields from 3 wells (12 fields) ± SE; 30×30 μm grid
Description: A single adult male Sprague-Dawley rat weighing between 250 g-450 g was anesthetized by isofluorane induction. After no response to external stimuli, the rat was sacrificed by guillotine.
Unnecessary satellite tissues and nerve fibers were cleaned from the DRG tissue immersed in the cell suspension medium at ambient room temperature using # 5 student forceps and a #10 scalpel blade under a Fisher Scientific Stereomaster® dissecting microscope (Stereomaster is a registered trademark of Fischer Scientific Co., LLC., Hampton, N.H., USA). The cleaned DRG tissue was placed into fresh cell suspension medium.
The cleaned DRG tissue was digested enzymatically to remove collagen fibers and proteinaceous material thereby releasing single DRG cells, as follows. […] The DRG tissue was then transferred to a fresh collagenase enzyme-cell suspension medium and incubated for another hour, after which the collagenase-digested DRG tissue was aspirated and washed twice in cell suspension medium pre-warmed to ambient room temperature.
The washed collagenase-digested DRG tissue was then placed into cell suspension medium to which a trypsin enzyme preparation (Prod. # T5266 from porcine pancreas; supplied by Sigma-Aldrich) was added to a final concentration of 0.25%, and then incubated for twenty minutes at 37° C. in a sterile atmosphere comprising 5% CO2. The trypsin action was stopped by the addition of 1 mL of pre-warmed HyClone fetal bovine serum […] (FBS Prod. # SH30070.01 supplied by Thermo Fisher Scientific, Napean, ON, Canada). The enzyme-digested DRG tissue was then washed twice with cell suspension medium supplemented with 10% FBS to ensure deactivation of trypsin activity. The enzyme-digested DRG tissue was then washed twice with cell suspension medium to remove the FBS.
The enzyme-digested DRG tissue was taken up from the cell suspension medium into a borosilicate glass Pasteur pipette (note that a borosilicate glass pipette was used to minimize DRG tissue sticking to the pipette) and was triturated about 15 times to disrupt the DRG tissue and to disassociate individual cells, after which the large tissue fragments were allowed to settle out of the suspension.
The supernatent containing satellite cells and debris was aspirated and discarded. […] The Ham's F12 medium containing 15% BSA served as a purification column for the supernatent and produced several upper layers containing dead cells, cellular debris and satellite layers over pellet of live neural cells. The upper layers were removed by aspiration with a Pasteur pipette. The cell pellet was resuspended in 1 mL of plating medium which comprised the cell suspension medium amended with 15 mM D-glucose (for a final concentation of 25 mM glucose). The 1 mL of suspended neural cells was then added to 19 mL of plating medium to make a 20-mL suspension of live neural cells.
600 μL of the neural cell suspension was removed to a 1.5 mL Eppendorf centrifuge tube.
The 600-μL reserved neural cell suspension was separated into three 200-μL aliquots which were then each plated into a well. The growth-factor-amended neural cell suspension was then plated into the remaining 93 wells in 200-μL aliquots. DMSO (Cat. # D2650 supplied by Sigma-Aldrich) was added to the three control wells (i.e., containing neural cell suspension that was not amended with growth factor supplements). The 96-well plate was then stored in a direct-heat humidified incubator (Form a CO2 Incubator supplied by Thermo Fisher Scientific) at 37° C. in a sterile atmosphere comprising 5% CO2.
(§1) High resolution and high pixel density digitized images of neurons were acquired. […] Total axon outgrowth was determined by placing a 30×30 μm grid over the image and counting the total number of intercepts with the grid line. Total neurite lengths were determined by the summing the lengths of all the neurites produced by an individual neuron.

[1] = test system: adult neurals cells isolated from four-month old ZDF rats; assay: Axon outgrowth from adult neural cells of Zucker diabetic fatty rats (Example 5); format: cell-based, Zucker diabetic fatty rat; conditions: 24-h incubation, 25 mM glucose
Description: as §1

[2] = test system: adult neural cells isolated from three-month-old STZ rats; assay: Axon outgrowth from adult neural cells of streptozotocin diabetic rats (Example 4); format: cell-based, Sprague-Dawley rat (STZ diabetic); conditions: 24-h incubation, 25 mM glucose
Description: as §1

[3] = at the dosages tested (0.1, 1.0, 10.0 μM)

CCC1(c2ccc(N)cc2)CCC(=O)NC1=O (stereo not shown) [Aminoglutethimide]
Ave number of intersects per cell per well (adult sensory neurons): 5.9 ± 2.0

CC(C)NCC(O)COc1ccc(CC(N)=O)cc1 (stereo not shown) [Atenolol]
Ave number of intersects per cell per well (adult sensory neurons): 6.2 ± 0.2

NCC(CC(=O)O)c1ccc(Cl)cc1 (stereo not shown) [Baclofen]
Ave number of intersects per cell per well (adult sensory neurons): 9.8 ± 2.2

CC(C)(Oc1ccc(CCNC(=O)c2ccc(Cl)cc2)cc1)C(=O)O [Bezafibrate]
Ave number of intersects per cell per well (adult sensory neurons): 6.9 ± 1.7

Cn1c(=O)c2c(ncn2C)n(C)c1=O [Caffeine]
Ave number of intersects per cell per well (adult sensory neurons): 3.25 ± 1.6

CCCCOc1cc(C(=O)NCCN(CC)CC)c2ccccc2n1 [Dibucaine hydrochloride]
Ave number of intersects per cell per well (adult sensory neurons): 2.0 ± 0.3

CN[C@@H]1[C@H](O[C@H]2[C@H](O[C@H]3[C@H](O)[C@@H](O)[C@H](NC(=N)N)[C@@H](O)[C@@H]3NC(=N)N)O[C@@H](C)[C@]2(O)CO)O[C@@H](CO)[C@H](O)[C@H]1O [Dihydrostreptomycin HCl]
Ave number of intersects per cell per well (adult sensory neurons): 2.4 ± 0.6

CCN(CC)C(C)CN1c2ccccc2Sc2ccccc21 (stereo not shown) [Ethopropazine HCL]
Ave number of intersects per cell per well (adult sensory neurons): 4.4 ± 1.4 | axon outgrowth relative to the controls ([1]; 10.0 μM): significantly increased

COc1ccccc1OCC(O)CO (stereo not shown) [Guaifenesin]
Ave number of intersects per cell per well (adult sensory neurons): 5.0 ± 0.9 | axon outgrowth relative to the controls ([2]; 10.0 μM): significantly increased | axon outgrowth relative to the controls ([1]; 0.1 μM): significantly increased

CC(C(=O)O)c1cccc(C(=O)c2ccccc2)c1 (stereo not shown) [Ketoprofen]
Ave number of intersects per cell per well (adult sensory neurons): 7.9 ± 0.7

CC(=O)O[C@]1(C(C)=O)CC[C@H]2[C@@H]3C=C(C)C4=CC(=O)CC[C@]4(C)[C@H]3CC[C@@]21C [Megastrol acetate]
Ave number of intersects per cell per well (adult sensory neurons): 9.2 ± 1.8

O=S(=O)(O)CCS [Mesna]
Ave number of intersects per cell per well (adult sensory neurons): 8.8 ± 3.9

C=N[C@@H](C(=O)N[C@@H]1C(=O)N2[C@@H]1SC(C)(C)[C@@H]2C(=O)O)c1ccccc1 [Metampicillin sodium]
Ave number of intersects per cell per well (adult sensory neurons): 6.7 ± 1.3

COc1c2occc2cc2ccc(=O)oc12 [Methoxsalen]
Ave number of intersects per cell per well (adult sensory neurons): 9.7 ± 2.0

Nc1ccc(/N=N/c2ccccc2)c(N)n1 [Phenazopyridine HCl]
Ave number of intersects per cell per well (adult sensory neurons): 10.2 ± 0.2

CN1CCN(CC(=O)N2c3ccccc3C(=O)Nc3cccnc32)CC1 [Pirenzepine HCl]
Ave number of intersects per cell per well (adult sensory neurons): 4.4 ± 0.7 | axon outgrowth relative to the controls [2, 3]: did not have significant effects | axon outgrowth relative to the controls [1, 3]: did not have significant effects

CCCC(CCC)C(=O)[O-].[Na+] [Sodium valproate]
Ave number of intersects per cell per well (adult sensory neurons): 8.5 ± 1.8

Aminopentanoic acid
axon outgrowth relative to the controls [2, 3]: did not have significant effects

Aminopentanoic acid HCl
Ave number of intersects per cell per well (adult sensory neurons): 4.3 ± 0.4

Hydrocortizone
Ave number of intersects per cell per well (adult sensory neurons): 10.7 ± 1.7
